This passage reports IC50 results from patent US20230183237A1, “COMPETITIVE AND NONCOMPETITIVE INHIBITORS OF THE MUSCARINIC ACETYLCHOLINE RECEPTOR M5” (Vanderbilt University, priority 2020, published 2023).

pIC50: −log10 of the molar value. Where only a bound is given, the exact number is not on record here.

In the assay the target is T1, hM5 (Homo sapiens, UniProt P08912).
T1 construct: expressed in transfected cells
T1 sequence (P08912 1-532): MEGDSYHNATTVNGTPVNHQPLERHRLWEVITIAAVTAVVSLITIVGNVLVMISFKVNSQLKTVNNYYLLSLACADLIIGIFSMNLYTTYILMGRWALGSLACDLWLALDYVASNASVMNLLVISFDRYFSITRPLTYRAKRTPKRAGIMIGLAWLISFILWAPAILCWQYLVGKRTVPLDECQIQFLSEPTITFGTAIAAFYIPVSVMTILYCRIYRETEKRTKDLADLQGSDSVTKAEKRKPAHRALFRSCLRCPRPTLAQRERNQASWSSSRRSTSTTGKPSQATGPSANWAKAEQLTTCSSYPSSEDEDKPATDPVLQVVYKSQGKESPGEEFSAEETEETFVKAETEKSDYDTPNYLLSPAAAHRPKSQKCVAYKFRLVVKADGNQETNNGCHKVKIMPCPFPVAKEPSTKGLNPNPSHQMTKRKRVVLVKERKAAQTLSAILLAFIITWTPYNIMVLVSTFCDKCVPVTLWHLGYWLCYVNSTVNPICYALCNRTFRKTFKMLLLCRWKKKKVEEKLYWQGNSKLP
As to the kind of experiment: Calcium mobilization concentration-response (IC50 vs EC80 acetylcholine), CHO hM5. It is filed as cell-based. The conditions noted are these: CELL LINE hM5; vs EC80 acetylcholine; read-out: IC50. In short, it runs like this: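 IC50 values derive from percent maximal acetylcholine response after an EC80 ACh addition, measured as kinetic calcium fluorescence (static ratio, max−min). Test compounds were added 140 s before agonist. Cells: stable hM5-CHO in HEPES-buffered HBSS with 2.5 mM probenecid, pH 7.4; ≥3 independent triplicate determinations.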
`Cc1cc2ncccc2cc1C1CCN(S(=O)(=O)c2cnn(C)c2CC#N)CC1` [Compound 461, 2-(1-methyl-4-((4-(7-methylquinolin-6-yl)piperidin-1-yl)sulfonyl)-1H-pyrazol-5-yl)acetonitrile]: the pIC50 is 5.89. In the case of `Cc1cc2ncnn2cc1C1(F)CCN(S(=O)(=O)c2cnn(C)c2C#N)CC1` [Compound 462, 4-((4-fluoro-4-(7-methyl-[1,2,4]triazolo[1,5-a]pyridin-6-yl)piperidin-1-yl)sulfonyl)-1-methyl-1H-pyrazole-5-carbonitrile], the pIC50 is 7.07.

Regarding `Cc1nc2n(c1C1CCN(S(=O)(=O)c3cnn(C)c3Cl)CC1)CCCC2` [Compound 463, 3-(1-((5-Chloro-1-methyl-1H-pyrazol-4-yl)sulfonyl)piperidin-4-yl)-2-methyl-5,6,7,8-tetrahydroimidazo[1,2-a]pyridine], the pIC50 was 6.60. As to `Cc1nc2n(c1C1CCN(S(=O)(=O)c3cnn(C)c3C)CC1)CCCC2` [Compound 464, 3-(1-((1,5-dimethyl-1H-pyrazol-4-yl)sulfonyl)piperidin-4-yl)-2-methyl-5,6,7,8-tetrahydroimidazo[1,2-a]pyridine], the pIC50 is 6.56. As to `Cc1nc2n(c1C1CCN(S(=O)(=O)c3cnn(C)c3C(F)F)CC1)CCCC2` [Compound 465, 3-(1-((5-(difluoromethyl)-1-methyl-1H-pyrazol-4-yl)sulfonyl)piperidin-4-yl)-2-methyl-5,6,7,8-tetrahydroimidazo[1,2-a]pyridine], the pIC50 was 5.16. For `Cc1nc2n(c1C1CCN(S(=O)(=O)c3cnn(C)c3CC#N)CC1)CCCC2` [Compound 466, 2-(1-methyl-4-((4-(2-methyl-5,6,7,8-tetrahydroimidazo[1,2-a]pyridin-3-yl)piperidin-1-yl)sulfonyl)-1H-pyrazol-5-yl)acetonitrile] the value was < 5.00. As for `Cc1ncc(S(=O)(=O)N2CCC(c3cc(F)c4ncnn4c3)CC2)n1C` [Compound 467, 6-(1-((1,2-dimethyl-1H-imidazol-5-yl)sulfonyl)piperidin-4-yl)-8-fluoro-[1,2,4]triazolo[1,5-a]pyridine], the pIC50 is 5.38. For `Cc1cc2ncnn2cc1C1=C(C#N)CN(S(=O)(=O)c2cnn(C)c2C)CC1` [Compound 468, 1-((1,5-dimethyl-1H-pyrazol-4-yl)sulfonyl)-4-(7-methyl-[1,2,4]triazolo[1,5-a]pyridin-6-yl)-1,2,5,6-tetrahydropyridine-3-carbonitrile] the value was 5.79; for `Cc1cc2ncnn2cc1C1=C(C#N)CN(S(=O)(=O)c2cnn(C)c2Cl)CC1` [Compound 469, 1-((5-chloro-1-methyl-1H-pyrazol-4-yl)sulfonyl)-4-(7-methyl-[1,2,4]triazolo[1,5-a]pyridin-6-yl)-1,2,5,6-tetrahydropyridine-3-carbonitrile], 5.79; for `Cc1cc2ccnn2cc1C1CCN(S(=O)(=O)c2cnn(C)c2Cl)CC1` [Compound 470, 6-(1-((5-chloro-1-methyl-1H-pyrazol-4-yl)sulfonyl)piperidin-4-yl)-5-methylpyrazolo[1,5-a]pyridine], 7.03.

`Cc1c(S(=O)(=O)N2CCC(c3cn4ncnc4cc3C(=O)N(C)C)CC2)cnn1C` [Compound 471, 6-(1-((1,5-dimethyl-1H-pyrazol-4-yl)sulfonyl)piperidin-4-yl)-N,N-dimethyl-[1,2,4]triazolo[1,5-a]pyridine-7-carboxamide]: the negative logarithm of the IC50 (pIC50) is < 5.00. As to `Cc1c(S(=O)(=O)N2CCC(c3cn4ncnc4cc3C(C)(C)O)CC2)cnn1C` [Compound 472, 2-(6-(1-((1,5-dimethyl-1H-pyrazol-4-yl)sulfonyl)piperidin-4-yl)-[1,2,4]triazolo[1,5-a]pyridin-7-yl)propan-2-ol], the pIC50 is < 5.00. As for `[2H]C1([2H])CC(c2cn3ncnc3c(F)c2C)CC([2H])([2H])N1S(=O)(=O)c1cnn(C)c1C(F)F` [Compound 474, 6-(1-((5-(Difluoromethyl)-1-methyl-1H-pyrazol-4-yl)sulfonyl)piperidin-4-yl-2,2,6,6-d4)-8-fluoro-7-methyl-[1,2,4]triazolo[1,5-a]pyridine], the pIC50 is 7.96. For `[2H]C1([2H])CC(c2cn3ncnc3cc2F)CC([2H])([2H])N1S(=O)(=O)c1c(C)nn(C)c1Cl` [Compound 475, 6-(1-((5-chloro-1,3-dimethyl-1H-pyrazol-4-yl)sulfonyl)piperidin-4-yl-2,2,6,6-d4)-7-fluoro-[1,2,4]triazolo[1,5-a]pyridine] the value was 7.02; for `[2H]C1([2H])CC(c2cn3ncnc3cc2F)CC([2H])([2H])N1S(=O)(=O)c1cnn(C)c1C(F)F` [Compound 476, 6-(1-((5-(difluoromethyl)-1-methyl-1H-pyrazol-4-yl)sulfonyl)piperidin-4-yl-2,2,6,6-d4)-7-fluoro-[1,2,4]triazolo[1,5-a]pyridine], 7.04; for `[2H]C1([2H])CC(c2cn3ncnc3cc2F)CC([2H])([2H])N1S(=O)(=O)c1cnn2c1CCC2` [Compound 478, 6-(1-((5,6-dihydro-4H-pyrrolo[1,2-b]pyrazol-3-yl)sulfonyl)piperidin-4-yl-2,2,6,6-d4)-7-fluoro-[1,2,4]triazolo[1,5-a]pyridine], 7.70. Regarding `Cc1c(S(=O)(=O)N2CCC(c3cn4ncnc4cc3C(=O)O)CC2)cnn1C` [Compound 479, 6-(1-((1,5-dimethyl-1H-pyrazol-4-yl)sulfonyl)piperidin-4-yl)-[1,2,4]triazolo[1,5-a]pyridine-7-carboxylic acid], the negative logarithm of the IC50 (pIC50) is < 5.00.

`Cc1ncc(S(=O)(=O)N2CCC(c3ccc4ncnn4c3)CC2)s1` [Compound 480, 5-((4-([1,2,4]triazolo[1,5-a]pyridin-6-yl)piperidin-1-yl)sulfonyl)-2-methylthiazole]: the pIC50 was < 5.00. As for `Cc1cc2ccnn2cc1C1CCN(S(=O)(=O)c2cnn(C)c2C#N)CC1` [Compound 481, 1-methyl-4-((4-(5-methylpyrazolo[1,5-a]pyridin-6-yl)piperidin-1-yl)sulfonyl)-1-pyrazole-5-carbonitrile], the pIC50 was 6.52. For the molecule `Cn1ncc(S(=O)(=O)N2CCC(c3cn4ncnc4cc3C(F)F)CC2)c1C#N` [Compound 482, 4-((4-(7-(difluoromethyl)-[1,2,4]triazolo[1,5-a]pyridin-6-yl)piperidin-1-yl)sulfonyl)-1-methyl-1H-pyrazole-5-carbonitrile], the pIC50 is 7.21. For `Cc1cc(S(=O)(=O)N2CCC(c3cn4ncnc4cc3Cl)CC2)sn1` [Compound 483, 5-((4-(7-chloro-[1,2,4]triazolo[1,5-a]pyridin-6-yl)piperidin-1-yl)sulfonyl)-3-methylisothiazole] the value was 8.22. With `Cc1cc(S(=O)(=O)N2CCC(c3cn4ncnc4c(F)c3C)CC2)sn1` [Compound 485, 5-((4-(8-fluoro-7-methyl-[1,2,4]triazolo[1,5-a]pyridin-6-yl)piperidin-1-yl)sulfonyl)-3-methylisothiazole], the pIC50 was 7.77.

Take `Cc1ncc(S(=O)(=O)N2CCC(c3cn4ncnc4c(F)c3C)CC2)o1` [Compound 486, 5-((4-(8-fluoro-7-methyl-[1,2,4]triazolo[1,5-a]pyridin-6-yl)piperidin-1-yl)sulfonyl)-2-methyloxazole]: the negative logarithm of the IC50 (pIC50) is 6.50. Regarding `Cc1cc(S(=O)(=O)N2CCC(c3nn4ncnc4cc3C)CC2)sn1` [Compound 487, 3-methyl-5-((4-(7-methyl-[1,2,4]triazolo[1,5-b]pyridazin-6-yl)piperidin-1-yl)sulfonyl)isothiazole], the pIC50 is 6.46.

Regarding `Cc1ncc(S(=O)(=O)N2CCC(c3nn4ncnc4cc3C)CC2)o1` [Compound 488, 2-methyl-5-((4-(7-methyl-[1,2,4]triazolo[1,5-b]pyridazin-6-yl)piperidin-1-yl)sulfonyl)oxazole], the pIC50 is 5.20. The figure for `Cn1ncc(S(=O)(=O)N2CC=C(c3c4ccccc4nn3C)CC2)c1Cl` [Compound 489, 3-(1-((5-chloro-1-methyl-1H-pyrazol-4-yl)sulfonyl)-1,2,3,6-tetrahydropyridin-4-yl)-2-methyl-2H-indazole] is 5.89; for `Cn1ncc(S(=O)(=O)N2CC=C(c3c4ccccc4nn3C)CC2)c1C#N` [Compound 490, 1-methyl-4-((4-(2-methyl-2H-indazol-3-yl)-3,6-dihydropyridin-1(2H)-yl)sulfonyl)-1H-pyrazole-5-carbonitrile] it is 5.14; for `Cc1cc(S(=O)(=O)N2CCC(c3cn4ncnc4cc3C)CC2)sn1` [Compound 491, 3-methyl-5-((4-(7-methyl-[1,2,4]triazolo[1,5-a]pyridin-6-yl)piperidin-1-yl)sulfonyl)isothiazole] it is 8.22. On to `Cc1ncc(S(=O)(=O)N2CCC(c3cn4ncnc4cc3C)CC2)o1` [Compound 492, 2-methyl-5-((4-(7-methyl-[1,2,4]triazolo[1,5-a]pyridin-6-yl)piperidin-1-yl)sulfonyl)oxazole], for which the pIC50 was 7.12. With `CCc1cc2ncnn2cc1C1CCN(S(=O)(=O)c2cc(C)ns2)CC1` [Compound 493, 5-((4-(7-ethyl-[1,2,4]triazolo[1,5-a]pyridin-6-yl)piperidin-1-yl)sulfonyl)-3-methylisothiazole], the pIC50 is 7.19.
